Like-named read-outs stand apart in the source and are kept apart here.
Tests used:
[1] = test system: MDR P. falciparum strain W2; assay: In vitro chemosensitization to chloroquine (RMI), strain W2; assay type: cell-based
[2] = test system: CQ-sensitive D6 strain of P. falciparum; assay: In vitro antimalarial activity, SYBR Green MSF assay, D6; assay type: cell-based; settings: Plasmodium falciparum, D6
Excerpt: (§1) This example describes the screening of disclosed antimalarial acridones against the CQ-sensitive D6 strain and the MDR Dd2 strain of P. falciparum for in vitro antimalarial activity.

[3] = test system: MDR Dd2 strain of P. falciparum; assay: In vitro antimalarial activity, SYBR Green MSF assay, Dd2; assay type: cell-based; settings: Plasmodium falciparum, DD2
Excerpt: as §1
As shown in Table 3 and Table 4, selected soluble acridone derivatives were screened for antimalarial activity against the CQ-sensitive D6 and the MDR Dd2 strains of P. falciparum.

[4] = test system: murine splenic lymphocytes (MSLCs); assay: Cytotoxicity by Alamar Blue assay; settings: for IC50: cytotoxicity; for IVTI: ratio of cytotoxicity IC50 (vs. MSLCs) to antimalarial IC50 against D6
[5] = Table 3, MSF assay, read-out: IC50 P. falciparum D6
[6] = Table 3, MSF assay, read-out: IC50 P. falciparum Dd2
[7] = Table 4, read-out: IC50 P. falciparum D6
[8] = Table 4, read-out: IC50 P. falciparum Dd2
[9] = Table 2, average of 4 independent experiments, read-out: IC50, D6
[10] = Table 2, average of 4 independent experiments, read-out: IC50, Dd2

Row | SMILES | IC50 [2, 5] | IC50 [3, 6] | IC50 [2, 7] | IC50 [3, 8] | other results
1 | CCN(CC)CCn1c2ccccc2c(=O)c2ccccc21 [A2] | – | – | – | – | sensitivity of W2 and Dd2 to CQ (chemosensitization, in words) [1]: increased
2 | CCN(CC)CCCn1c2ccccc2c(=O)c2ccccc21 [A3] | – | – | – | – | sensitivity of W2 and Dd2 to CQ (chemosensitization, in words) [1]: increased
3 | CCN(CC)CCCCn1c2ccccc2c(=O)c2ccccc21 [A4] | – | – | – | – | sensitivity of W2 and Dd2 to CQ (chemosensitization, in words) [1]: increased
4 | CCN(CC)CCCCCn1c2ccccc2c(=O)c2ccccc21 [A5] | – | – | – | – | sensitivity of W2 and Dd2 to CQ (chemosensitization, in words) [1]: increased
5 | CCN(CC)CCCCCCn1c2ccccc2c(=O)c2ccccc21 [A6] | – | – | – | – | potentiation of the IC50 of CQ ([1]; 5 μM acridone, both MDR strains (W2, Dd2)): over 90 fold; sensitivity of W2 and Dd2 to CQ (chemosensitization, in words) [1]: increased
6 | CCN(CC)CCCCCCCCn1c2ccccc2c(=O)c2ccccc21 [A8] | – | – | – | – | sensitivity of W2 and Dd2 to CQ (chemosensitization, in words) [1]: increased
7 | O=C1C(O)=C([C@H]2CC[C@H](c3ccc(Cl)cc3)CC2)C(=O)c2ccccc21 [ATV, Atovaquone, reference compound] | 0.1 nM | 0.1 nM | – | – | IC50 ([4]; read-out: IC50 MSLCs, Table 3): > 25 µM
8 | CCN(CC)CCOc1cccc2c1c(=O)c1ccc(Cl)cc1n2CCN(CC)CC [T2.1.5] | – | – | 33 nM | 84 nM | IC50 ([4]; read-out: IC50 MSLCs, Table 4): > 25 µM
9 | CCN(CC)CCOc1cccc2[nH]c3cc(Cl)ccc3c(=O)c12 [T2.1] | 240 nM | 420 nM | – | – | IC50 ([4]; read-out: IC50 MSLCs, Table 3): > 25 µM
10 | CCN(CC)CCOc1ccc2c(c1)c(=O)c1ccc(Cl)cc1n2CCN(CC)CC [T2.2.5, 2-(2-diethylaminoethoxy)-6-chloro-10-(2-diethylaminoethyl)-9-acridone] | – | – | 56 nM | 133 nM | IC50 [2, 9]: 79 nM; IC50 [3, 10]: 86 nM; IVTI [4]: >316; IC50 ([4]; read-out: IC50, MSLCs, Table 2): > 25 µM; IC50 ([4]; read-out: IC50 MSLCs, Table 4): > 25 µM
11 | CCN(CC)CCCn1c2cc(Cl)ccc2c(=O)c2ccc(OCCN(CC)CC)cc21 [T4.5] | – | – | 47 nM | 100 nM | IC50 ([4]; read-out: IC50 MSLCs, Table 4): > 25 µM
12 | CCN(CC)CCOc1ccc2c(=O)c3ccc(OCCN(CC)CC)cc3[nH]c2c1 [T4] | 398 nM | 759 nM | – | – | IC50 ([4]; read-out: IC50 MSLCs, Table 3): > 25 µM
13 | CCN(CC)CCCCCOc1ccc2c(=O)c3ccc(Cl)cc3[nH]c2c1 [T5, 3-(5-diethylaminopentyloxy)-6-chloro-9-acridone] | 76 nM | 61 nM | – | – | IC50 [2, 9]: 84 nM; IC50 [3, 10]: 125 nM; IVTI [4]: 119; IC50 ([4]; read-out: IC50, MSLCs, Table 2): 10 µM; IC50 ([4]; read-out: IC50 MSLCs, Table 3): > 25 µM
14 | CCN(CC)CCCOc1ccc2c(=O)c3ccc(Cl)cc3n(CCCN(CC)CC)c2c1 [T5.5] | – | – | 76 nM | 109 nM | IC50 ([4]; read-out: IC50 MSLCs, Table 4): 8.9 µM
15 | O=c1c2ccc(Cl)cc2[nH]c2cc(OCCN3CCCC3)ccc12 [T6] | 270 nM | 390 nM | – | – | –
16 | CCN(CC)CCOc1ccc2c(=O)c3ccc(F)cc3[nH]c2c1 [T7] | 90 nM | 49 nM | – | – | –
17 | CCN(CC)CCn1c2cc(Cl)ccc2c(=O)c2ccc(OCCN3CCCC3)cc21 [T8.5] | – | – | 50 nM | 116 nM | –
18 | CCN(CC)CCOc1ccc2c(=O)c3ccc(Br)cc3[nH]c2c1 [T8] | 12 nM | 19 nM | – | – | –
19 | CCN(CC)CCOc1ccc2c(=O)c3ccc(Cl)cc3n(CCN3CCCC3)c2c1 [T9.5] | – | – | 33 nM | 60 nM | –
20 | CN(C)CCOc1ccc2c(=O)c3ccc(Cl)cc3[nH]c2c1 [T9] | 56 nM | 63 nM | – | – | –
21 | CCN(CC)CCOc1ccc2c(=O)c3ccccc3n(CCN(CC)CC)c2c1 [T10.5] | – | – | 637 nM | 595 nM | –
22 | CCN(CC)CCOc1ccc2c(=O)c3ccc(F)cc3n(CCN(CC)CC)c2c1 [T11.5] | – | – | 196 nM | 359 nM | –
23 | CCN(CC)CCOc1ccc2c(=O)c3ccc(Cl)cc3oc2c1 [TX2, 3-(2-diethylaminoethoxy)-6-chloro-xanthone] | > 2500 nM | > 2500 nM | – | – | IC50 [2, 9]: > 2500 nM; IC50 [3, 10]: > 2500 nM; IC50 ([4]; read-out: IC50, MSLCs, Table 2): > 25 µM; IC50 ([4]; read-out: IC50 MSLCs, Table 3): > 25 µM

Reference: patent US9399625B2, “Acridone compounds” (Oregon Health & Science University, priority 2006, dated 2016)
